# Earlier results as cited in paper PMC8687831, “α-Amylase Inhibitory Activity of Catunaregam spinosa (Thunb.) Tirveng.: In Vitro and In Silico Studies” (BioMed Research International, 2021).
# Test system: streptozotocin-induced diabetic rats
# Design: method as in PMID 21143769
smiles,measurement,value
"CC[C@H](CC[C@@H](C)[C@H]1CC[C@H]2[C@@H]3CC=C4C[C@@H](O)CC[C@]4(C)[C@H]3CC[C@]12C)C(C)C [β-Sitosterol, β-sitosterol]",effective to lower the blood glucose level,78-100%
